Assays:
P. falciparum = assay: EC50 listed in S2 Table Metabolomics (used to set the concentration tested); type: cell-based; settings: Plasmodium falciparum; EC50 used for Factor_XEC50 in metabolomics; read-out: EC50_nM
[1] = test system: P. falciparum 3D7 trophozoites; assay: Metabolomic fingerprint profiling LC-MS; type: cell-based, Plasmodium falciparum; set-up: UDP-D-glucose / ADP-D-glucose: unit not given here
[2] = metabolite level change after treatment

## COc1cc(OC)c(N(C)C(=O)c2cc3c(s2)-c2ccccc2S(=O)(=O)C3)cc1Cl [MMV006427]
P. falciparum
  EC50: 0.0782 µM
[1]; S2 Table Metabolomics, metabolite Acetyllysine
  Acetyllysine: -3.0678
[1]; S2 Table Metabolomics, metabolite N-acetyl-L-ornithine
  N-acetyl-L-ornithine: -2.077
[1]; S2 Table Metabolomics, metabolite N-carbamoyl-L-aspartate
  N-carbamoyl-L-aspartate: -3.4047
[1]; S2 Table Metabolomics, metabolite NADPH
  NADPH: -0.4646
[1]; S2 Table Metabolomics, metabolite dAMP
  dAMP: 2.306
[1]; S2 Table Metabolomics, metabolite dCMP
  dCMP: 1.395
[1]; S2 Table Metabolomics, metabolite dTDP
  dTDP: 3.378
[1]; S2 Table Metabolomics, metabolite dTMP
  dTMP: 4.553
[1]; S2 Table Metabolomics, metabolite dTTP
  dTTP: 1.85
[1]; S2 Table Metabolomics, metabolite dihydroorotate
  dihydroorotate: -2.575
[1]; S2 Table Metabolomics, metabolite orotate
  orotate: 0.4264
[1]; S2 Table Metabolomics, peptide DLH
  DLH: -5.058
[1]; S2 Table Metabolomics, peptide DLS/SDL/SID
  DLS/SDL/SID: -4.1926
[1]; S2 Table Metabolomics, peptide PD
  PD: -1.1837
[1]; S2 Table Metabolomics, peptide PEE
  PEE: -3.666
[1]; S2 Table Metabolomics, peptide PVNF
  PVNF: -5.242
[1]; metabolite 3-phosphoglycerate, S2 Table Metabolomics
  3-phosphoglycerate: 0.1517
[1]; metabolite ADP-D-glucose, S2 Table Metabolomics
  ADP-D-glucose: -0.124
[1]; metabolite ATP, S2 Table Metabolomics
  ATP: -1.807
[1]; metabolite CDP, S2 Table Metabolomics, change in metabolite level after compound treatment
  CDP: 0.8052
[1]; metabolite D-sedoheptulose-1/7-phosphate, S2 Table Metabolomics, change in metabolite level after compound treatment
  D-sedoheptulose-1/7-phosphate: -0.2773
[1]; metabolite FAD, S2 Table Metabolomics
  FAD: -1.0601
[1]; metabolite GMP, S2 Table Metabolomics, change in metabolite level after compound treatment
  GMP: -2.558
[1]; metabolite NAD+, S2 Table Metabolomics
  NAD+: 0.783
[1]; metabolite NADP+, S2 Table Metabolomics
  NADP+: 0.3092
[1]; metabolite Octoluse Bisphosphate, S2 Table Metabolomics, change in metabolite level after compound treatment
  Octoluse Bisphosphate: -2.061
[1]; metabolite Pyroglutamic acid, S2 Table Metabolomics
  Pyroglutamic acid: -0.1068
[1]; metabolite UDP-D-glucose, S2 Table Metabolomics
  UDP-D-glucose: 0.214
[1]; metabolite UDP-D-glucuronate, S2 Table Metabolomics
  UDP-D-glucuronate: -0.1144
[1]; metabolite UDP-N-acetyl-glucosamine, S2 Table Metabolomics
  UDP-N-acetyl-glucosamine: 0.3636
[1]; metabolite UDP, S2 Table Metabolomics, change in metabolite level after compound treatment
  UDP: 0.3063
[1]; metabolite UMP, S2 Table Metabolomics, change in metabolite level after compound treatment
  UMP: 0.3348
[1]; metabolite UTP, S2 Table Metabolomics, change in metabolite level after compound treatment
  UTP: -0.8427
[1]; metabolite a-ketoglutarate, S2 Table Metabolomics
  a-ketoglutarate: -0.411
[1]; metabolite citrate/isocitrate, S2 Table Metabolomics, change in metabolite level after compound treatment
  citrate/isocitrate: 0.0762
[1]; metabolite cytidine, S2 Table Metabolomics
  cytidine: 0.3423
[1]; metabolite dATP, S2 Table Metabolomics
  dATP: -0.2111
[1]; metabolite dGMP/AMP, S2 Table Metabolomics, change in metabolite level after compound treatment
  dGMP/AMP: -0.9855
[1]; metabolite fumarate, S2 Table Metabolomics, change in metabolite level after compound treatment
  fumarate: -0.3788
[1]; metabolite glucose-1/6-phosphate, S2 Table Metabolomics, change in metabolite level after compound treatment
  glucose-1/6-phosphate: -0.5462
[1]; metabolite glycerate, S2 Table Metabolomics, change in metabolite level after compound treatment
  glycerate: -0.8092
[1]; metabolite guanine, S2 Table Metabolomics, change in metabolite level after compound treatment
  guanine: 0.1326
[1]; metabolite guanosine, S2 Table Metabolomics, change in metabolite level after compound treatment
  guanosine: 0.04127
[1]; metabolite hypoxanthine, S2 Table Metabolomics
  hypoxanthine: -0.06662
[1]; metabolite indole, S2 Table Metabolomics
  indole: -0.3106
[1]; metabolite inosine, S2 Table Metabolomics, change in metabolite level after compound treatment
  inosine: 0.06183
[1]; [2]
  2_3-Diphosphoglyceric acid: -0.9034
  4-phosphopantothenate: -0.1012
  6-phospho-D-gluconate: -0.09619
  FMN: 0.1283
  IMP: 0.7504
  Pyrophosphate: -1.05
  Sedoheptoluse bisphosphate: -0.7918
  cyclic-AMP: -0.9224
  glutathione disulfide: -0.1859
  lactate: -1.014
  myo-inositol: -1.304
[1]; metabolite nicotinate, S2 Table Metabolomics
  nicotinate: 0.5771
[1]; metabolite ornithine, S2 Table Metabolomics
  ornithine: 0.02692
[1]; metabolite phosphoenolpyruvate, S2 Table Metabolomics
  phosphoenolpyruvate: 0.2074
[1]; metabolite pyruvate, S2 Table Metabolomics, change in metabolite level after compound treatment
  pyruvate: -1.66
[1]; metabolite ribose-phosphate, S2 Table Metabolomics
  ribose-phosphate: -0.6233
[1]; metabolite sarcosine/alanine, S2 Table Metabolomics, change in metabolite level after compound treatment
  sarcosine/alanine: -1.711
[1]; metabolite sn-glycerol-3-phosphate, S2 Table Metabolomics
  sn-glycerol-3-phosphate: 0.334
[1]; metabolite succinate/methylmalonic acid, S2 Table Metabolomics, change in metabolite level after compound treatment
  succinate/methylmalonic acid: 0.04426
[1]; metabolite uridine, S2 Table Metabolomics, change in metabolite level after compound treatment
  uridine: -0.5041
[1]; metabolite xanthosine, S2 Table Metabolomics, change in metabolite level after compound treatment
  xanthosine: -1.485

— paper PMC4965013, “Open Source Drug Discovery with the Malaria Box Compound Collection for Neglected Diseases and Beyond” (PLoS Pathogens, 2016)
